In patent US10881642B2, “Autophagy enhancer and use thereof” (Industry-Academic Cooperation Foundation, Yonsei University, priority 2016, dated 2021) one finds mTOR inhibition data, which are given here for 2 compounds.

The test system of this assay is mTOR. The assay can be described thus: Western blot for mTOR inhibition (S6K1 phosphorylation). In kind it is cell-based. Conditions: immunoblot. Here is the method: Screening of autophagy enhancer. […] Luciferase assay. Firefly and Renilla luciferase assays were conducted using the Dual-Luciferase Reporter Assay System (Promega) according to the manufacturer's recommendation. In brief, cells were lysed in 1× lysis buffer and subjected to a single round of freezing/thawing. Firefly luciferase was determined after mixing 5 μl of lysate with 25 μl of Luciferase Assay Reagent II. Renilla luciferase was then determined after further addition of 20 ul of Stop&Glo Reagent. Cell culture and media and drugs treatment. […] Cytotoxicity was determined by the measurement of LDH release in cell culture media using the LDH kit (Roche), according to the protocol from the manufacturer. […] Imaging and image quantification. […] Formation of acidic vesicular organelles was quantitated by staining the cells with acridine orange (Invitrogen, 5 ug/ml, 10 min). […] Cells or tissues were solubilized in lysis buffer supplemented with protease and phosphatase inhibitors and protein concentration was measured by the Bradford method. Ten to 30 micrograms were loaded on 4-12% Bis-Tris gel (NUPAGE, Invitrogen) or 8-15% SDS-PAGE, transferred to PVDF membranes and analyzed by western blot using the ECL method (Pierce). […] Protein levels were quantified by using ImageJ software analysis. […]

Consider `COc1oc(-c2ccccc2Cl)nc1S(=O)(=O)c1ccccc1` [MSL-7, 2-(2-chlorophenyl)-5-methoxy-4-(phenylsulfonyl) oxazole], for which the mTOR inhibition entry is “without cellular toxicity or mTOR inhibition”.
With `CSc1oc(-c2ccccc2)nc1S(=O)(=O)c1ccc(F)cc1` [MSL], the mTOR inhibition result is given as “does not involve mTOR inhibition”.
